{"source": "patent US8617546B2", "about": "“Anticancer agent comprising anti-PD-1 antibody or anti-PD-L1 antibody” (Seoul National University Industry Foundation, priority 2008, dated 2013)", "key": {"iNKT cells [1]": {"tested_on": "iNKT cells", "assay": "Expression of PD-1 and PD ligands on iNKT cells after α-GC administration (FACS)", "format": "in vivo, C57BL/6 mice", "details": "FIG. 1", "description": "Splenocytes were isolated from C57BL/6 mice administered with 2 μg of α-GC at different time points (0 hr, 6 hrs, 72 hrs, 7 days, one month and two months) after the administration. The cells were stained with a PE-conjugated anti-PD-1 monoclonal antibody, a PE-conjugated anti-PD-L1 monoclonal antibody, a PE-conjugated anti-PD-L2 monoclonal antibody and a PE-conjugated isotype control monoclonal antibody, respectively. iNKT cells were gated on B220^− TCR-β^intα-GC/CD1d:Ig^+ population. PD-1, PD-L1 and PD-L2 expression (open histograms) was analyzed by FACS. Shaded histograms indicate staining with isotype control niAbs."}, "iNKT cells [2]": {"tested_on": "iNKT cells", "assay": "iNKT cell activation in vivo: serum IFN-γ and IL-4 by ELISA after α-GC treatment", "design": "species or system C57BL/6 mice", "details": "2 μg α-GC; FIG. 3", "description": "C57BL/6 mice was injected with 200 μg of the control rat IgG, the anti-PD-1 mAb, the anti-PD-L1 mAb or the anti-PD-L2 mAb 24 hrs before treatment with 2 μg of α-GC. Sera were obtained at 0, 2, 6, 12, 24, 48 and 72 hrs after the treatment, followed by ELISA analysis for IFN-γ and IL-4 levels."}, "anergic iNKT cells [3]": {"tested_on": "anergic iNKT cells", "assay": "Recovery of responsiveness of anergic iNKT cells in vitro (cytokine ELISA of supernatants)", "format": "cell-based, C57BL/6 mice", "details": "pre-treatment with 2 μg α-GC 7 days before restimulation, in presence of control IgG; FIG. 5", "description": "The α-GC-induced unresponsiveness of iNKT cells was detected as early as 3 days after primary stimulation and observed to persist until 7~30 days after α-GC stimulation. Thus, C57BL/6 mice were injected with 2 μg of α-GC to induce iNKT cell anergy. One week and one month later, splenocytes were isolated from the mice and 5×10^5 cells were incubated for 3 days with 100 ng/ml of α-GC in the presence of 50 μg/ml of the control rat IgG, the anti-PD-1 mAb, the anti-PD-L1 mAb, or the anti-PD-L2 mAb. Also, splenocytes isolated from the mice were incubated for 3 days with 10 ng/ml of α-GC without mAb, and these were represented by ‘activation’. The supernatants were then assayed for IFN-γ and IL-4 levels by ELISA [*:p<0.05 and **:p<0.01 (vs. control rat IgG)]."}, "anergic iNKT cells [4]": {"tested_on": "anergic iNKT cells", "assay": "Recovery of responsiveness of anergic iNKT cells in vivo: serum cytokines after secondary α-GC injection", "design": "species or system C57BL/6 mice", "details": "2 μg α-GC, re-injection 14 days later; FIG. 6", "description": "200 μg of the control rat IgG, the anti-PD-1 antibody or the anti-PD-L1 antibody was intraperitoneally injected into C57BL/6 mice 24 hrs before treatment with 2 μg of α-GC. 14 days later, 2 μg of α-GC was injected again, followed by the preparation of sera 2 and 12 hrs after the re-injection for ELISA assay of IL-4 and IFN-γ levels, respectively."}, "[5]": {"tested_on": "B16F10 melanoma metastasis", "assay": "B16F10 melanoma metastasis model with anergy-induced iNKT cells: number of pulmonary nodules", "format": "in vivo, C57BL/6 mice", "details": "anergy induced with control IgG and α-GC; α-GC treatment during tumor inoculation; FIG. 10", "description": "Anergy-induced iNKT cells were assayed for the recovery of anti-tumor activity by the antibodies of the present invention. In this regard, naive C57BL/6 mice were intraperitoneally injected with 200 μg of the control rat IgG, the anti-PD-1 antibody or the anti-PD-L1 antibody 24 hrs after which injection with 2 μg of α-GC induced iNKT cell anergy. 7 days later, 5×10^5 B16F10 tumor cells were i.v. injected. On Day 0, 4 and 8, the mice were treated with 500 ng of α-GC to induce anti-tumor activity of iNKT cells. 14 days later, the lungs were excised and the nodules formed by cancer metastasis were counted (A). The isolated lungs were observed under an optical microscope (B)."}}, "data": [{"compound": "CCCCCCCCCCCCCCCCCCCCCCCCCC(=O)N[C@@H](CO[C@H]1O[C@H](CO)[C@H](O)[C@H](O)[C@H]1O)[C@H](O)[C@H](O)CCCCCCCCCCCCCC", "note": "[α-GC, α-galactosylceramide]", "values": [{"measurement": "PD-L1 expression on iNKT cells", "setting": "iNKT cells [1]; after 2 μg α-GC", "result": "temporarily increased"}, {"measurement": "persistence of the upregulated PD-1 level on iNKT cells", "setting": "iNKT cells [1]; after 2 μg α-GC", "result": "for two months"}, {"measurement": "time for PD-L1 expression to decline toward naive state levels", "setting": "iNKT cells [1]; after 2 μg α-GC", "result": "≤ 72", "unit": "h"}, {"measurement": "PD-L2 expression on iNKT cells", "setting": "iNKT cells [1]; regardless of activation status", "result": "not found"}, {"measurement": "PD-1 expression on iNKT cells", "setting": "iNKT cells [1]; splenocytes after 2 μg α-GC, 0 hr to two months", "result": "upregulated"}, {"measurement": "time of peak blood IFN-γ level after α-GC treatment", "setting": "iNKT cells [2]", "result": "≤ 12", "unit": "h"}, {"measurement": "time of peak blood IL-4 level after α-GC treatment", "setting": "iNKT cells [2]", "result": "≤ 2", "unit": "h"}, {"measurement": "production of IFN-γ on restimulation after α-GC pre-treatment", "setting": "anergic iNKT cells [3]", "result": "greatly decrease"}, {"measurement": "production of IL-4 on restimulation after α-GC pre-treatment", "setting": "anergic iNKT cells [3]", "result": "greatly decrease"}, {"measurement": "serum IFN-γ upon secondary α-GC injection in mice pretreated with α-GC", "setting": "anergic iNKT cells [4]", "result": "significantly low"}, {"measurement": "serum IL-4 upon secondary α-GC injection in mice pretreated with α-GC", "setting": "anergic iNKT cells [4]", "result": "significantly low"}, {"measurement": "tumor growth / metastasis with anergic iNKT cells", "setting": "[5]", "result": "did not suppress tumor growth"}]}]}
